{"source": "patent US20230190852A1", "about": "“COMPOSITIONS AND METHODS FOR JOINT HEALTH” (Unigen, Inc., priority 2013, published 2023)", "key": {"recombinant human BKb2R": {"molecular_target": "T1, recombinant human BKb2R (Homo sapiens, UniProt P30411)", "T1 construct": "expressed in transfected cells; host or cells: CHO-K1", "T1 sequence (P30411 1-391)": "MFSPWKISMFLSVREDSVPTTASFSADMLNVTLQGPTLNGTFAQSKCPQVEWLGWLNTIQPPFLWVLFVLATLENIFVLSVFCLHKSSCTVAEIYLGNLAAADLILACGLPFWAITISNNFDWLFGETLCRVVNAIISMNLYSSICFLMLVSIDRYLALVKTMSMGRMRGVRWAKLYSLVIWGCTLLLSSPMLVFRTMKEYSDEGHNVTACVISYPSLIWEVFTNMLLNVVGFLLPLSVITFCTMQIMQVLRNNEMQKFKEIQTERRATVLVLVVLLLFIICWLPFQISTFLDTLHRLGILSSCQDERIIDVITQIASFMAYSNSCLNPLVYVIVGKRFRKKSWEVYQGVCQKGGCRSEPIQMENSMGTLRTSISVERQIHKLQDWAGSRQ", "test": "Bradykinin Radioligand Binding Assay (BKB2)", "settings": "manually calculated by Cheng-Prusoff equation; read-out: BKB2 Ki (μg/ml) (converted)", "protocol": "(§1) BKB1 binding assay, as described in Example 17, was used to test curcumin compound isolated from a Curcuma longa extract (Compound 11), as well as commercially available curcumin purchased from Sigma-Aldrich (C1386). Curcumin was tested at final concentrations ranging from 200 μM to 5 nM. Binding curves were plotted by non-linear regression fit (using GraphPad Prizm software). Ki values were computed using Cheng-Prusoff algorithm. In addition, inhibition of BKB2 receptor binding activity by curcumin was examined with methods similar to those described in Example 17 for the BKB1 receptor with some modifications. Bradykinin Radioligand Binding Assay (BKB2) was conducted using a standard assay under the following conditions: • 1. Composition of Assay Buffer: 24 mM TES, pH 6.8, 1 mM 1.10-Phenanthrioline, 0.3% BSA. • 2. Source of BKb2R: CHO-K1 cells expressing recombinant human BKb2R • 3. Ligand: [^3H]-Bradykinin 0.2 nM. • 4. Incubation time: 90 min RT. • 5. Reading: TopCount.\nCommercial curcumin (Sigma, C1386) was tested at concentrations ranging from 200 μM to 5 nM. […] Ki was manually calculated by using Cheng-Prusoff equation."}, "CD-1 mice [1]": {"test_system": "CD-1 mice", "test": "Nociceptive behavior model elicited by intraplantar injection of formalin", "assay_type": "in vivo", "protocol": "Mice (n=6 per group) were habituated under inverted Plexiglas observation chamber for 30 minutes to allow them to acclimatize to their surroundings. […] Mice were immediately transferred to their individual observational chamber. […] Mirrors positioned behind the chambers enabled observation of the right hind paw when it was obscured from direct view. […] These behavioral reactions observed for the first five minutes are due to direct action of the irritant on sensory nerve endings where is believed to be as a result of inflammation in the later phase. […] Mice were treated with curcumin (50, 100, 150 or 200 mg/kg) or ibuprofen (200 mg/kg) orally half an hour before intraplantar formalin injection."}, "BKB1 receptor": {"molecular_target": "T2, BKB1 receptor (Homo sapiens, UniProt P46663)", "T2 construct": "Membranes from human IMR-90 lung fibroblasts, stimulated with IL-1β; endogenous in cells; host or cells: human IMR-90 lung fibroblasts, IL-1β stimulated (membranes)", "T2 sequence (P46663 1-353)": "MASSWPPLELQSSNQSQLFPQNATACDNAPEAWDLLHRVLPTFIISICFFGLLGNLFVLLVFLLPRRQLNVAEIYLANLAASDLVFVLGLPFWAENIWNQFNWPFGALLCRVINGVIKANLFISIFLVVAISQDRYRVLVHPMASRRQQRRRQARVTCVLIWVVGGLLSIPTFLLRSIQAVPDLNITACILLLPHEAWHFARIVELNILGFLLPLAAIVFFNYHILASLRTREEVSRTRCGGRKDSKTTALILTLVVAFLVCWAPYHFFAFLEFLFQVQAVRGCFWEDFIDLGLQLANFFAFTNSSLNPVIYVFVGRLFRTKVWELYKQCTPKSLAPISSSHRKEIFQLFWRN", "test": "Bradykinin B1 (BKB1) radioligand binding assay", "protocol": "as §1, with “Membranes from human IMR-90 lung fibroblasts, stimulated with IL-1β in modified HEPES buffer (PH=7.4), were incubated with a test sample in the presence of 0.9 nM [^3H](Des-[…])-Kallidin for 60 minutes at room temperature. After incubation, membranes were filtered and washed five times with modified DPBS buffer (pH=7.4). Samples were scintillation counted to determine the amount of specifically bound to the BKB1 receptor containing membrane. […] BKB1 binding” for “BKB1 binding”, “some modifications. […] Composition of” for “some modifications. Bradykinin Radioligand Binding Assay (BKB2) was conducted using a standard assay under the following conditions: • 1. Composition of”"}, "[2]": {"test_system": "Rabbit cartilage explants", "test": "Ex vivo glycosaminoglycans (GAG) release assay", "assay_type": "cell-based", "protocol": "Articular cartilage from hock joints of rabbits (2.5 kg body weight) was removed immediately after each animal was sacrificed and articular cartilage explants were obtained by following the method described by Sandy et al. (Biochem. Biophy Acta 543:36, 1978). Briefly, after the articular surfaces were surgically exposed under sterile conditions, approximately 200-220 mg articular surfaces per joint were dissected and submerged into complete medium (DMEM, supplemented with heat inactivated 5% FBS; penicillin 100 U/ml; streptomycin 100 ug/ml). They were then rinsed several times with the complete medium and incubated for 1 to 2 days at 37° C. in a humidified 5% CO2/95% air incubator for stabilization. The complete medium was replaced with a basal medium (DMEM, supplemented with heat-inactivated 1% FBS, 10 mM HEPES, and penicillin 100 U/ml streptomycin 100 μg/ml). Approximately 30 mg cartilage pieces (2×3×0.35 mm/piece) were placed in 24-well plates and treated with given concentrations of test agents. After pretreatment for 1 h, 5 ng/ml of rhIL-1α was added to the culture medium and further incubated at 37° C. in a humidified 5% CO2/95% air incubator. The culture medium was collected 24 h later and stored at −20° C. until assay.\nThe amount of sulphated GAGs (e.g., released from proteoglycans) in the medium at the end of the reaction reflects the amount of articular cartilage degradation, which was determined using the commercially available 1,9-dimethy-methylene blue method according to the instructions of the manufacturer (Blyscan™ assay, Accurate Chemical and Scientific Corp., Westbury, N.Y.)."}, "Lewis rats": {"test_system": "Lewis rats", "test": "Carrageenan-induced rat paw edema model (paw edema and pain sensitivity)", "assay_type": "in vivo", "settings": "for Pain sensitivity, percent change of vehicle / Paw edema, percent change of vehicle: 166 mg/kg oral 1 hr after carrageenan, female Lewis rats", "protocol": "Local inflammation was induced by intraplantar injection of carrageenan λ (Sigma, St. Louis, Mo.; 100 μl of 1% [w/v] in saline) into the plantar surface of right hind paw of sedated rat (with 2.5% isoflurane) at time 0 (T=0) (Gamache et al., J Neurosurg. 65:679, 1986; Guay et al., J. Biol. Chem. 279:24866, 2004; Chou et al., Anesth. Analg. 97:1724, 2003). Rats were acclimated in a procedure room for 20-30 minutes before each measurement was taken. Allodynia was evaluated by measuring responsiveness to the tip of a Randell-Selitto paw pressure test applied perpendicular to the central plantar surface of the right hind paw. A positive response to the applied pressure, noted by sharp withdrawal of the paw, was recorded automatically by an electronic Von Frey Anesthesiometer (2390 series Electrovonfrey, IITC, Woodland Hills, Calif.) (Vivancos et al., Braz. J. Med. Biol. Res. 37:391, 2004). Mechanical allodynia was evaluated before carrageenan inoculation, and thereafter at 1 hr, 2 hr, 4 hr and 6 hr. Paw edema volume was measured with the use of Plethysmometer (IITC, Woodland Hills, Calif.; Model 520) at time 0 (before carrageenan), and then 1 hr, 2 hr, 4 hr, and 6 hr after carrageenan injection. Animals (N=5 per group) were orally gavaged with a positive control ibuprofen (Spectrum Chemical MFG, Gardena, Calif.) (100 or 200 mg/kg); test articles such as: extracts, and combinations of extracts at various doses from 100, 200, 300 to 400 mg/kg and vehicle control (propylene glycol) were given 1 hour after carrageenan inoculation unless specified otherwise."}, "CD-1 mice [3]": {"test_system": "CD-1 mice", "test": "Visceral pain perception model (Writhing's test, acetic acid)", "assay_type": "in vivo", "protocol": "Mice (n=6 per group) were habituated under an inverted Plexiglas observation chamber for 30 minutes to allow them to acclimatize to their surroundings. Animals were orally administered treatment articles at different doses, […], or vehicle control (propylene glycol) 30 minutes before intraperitoneal administration of freshly made acetic acid solution (0.7% in 0.9% NaCl) at 10 ml/kg using a 26 gauge needle. The experiment was carried out at room temperature. After the challenge, each animal was placed back into its own individual section of the observation chamber and the number of constrictions of the abdominal muscle together with stretching was counted cumulatively over a period of 30 minutes (Collier et al., Br. J. Pharmacol. Chemother. 32:295, 1968)."}}, "data": [{"compound": "COc1cc(/C=C/C(=O)CC(=O)/C=C/c2ccc(O)c(OC)c2)ccc1O", "note": "[Curcumin]", "values": [{"measurement": "Ki", "setting": "recombinant human BKb2R", "result": 157, "unit": "µM"}, {"measurement": "Pain Sensitivity 20-40 Minutes after Formalin Injection % ↓ vs. Vehicle", "setting": "CD-1 mice [1]; 50 mg/kg oral", "result": 53.1, "unit": "%"}, {"measurement": "Pain Sensitivity 20-40 Minutes after Formalin Injection % ↓ vs. Vehicle", "setting": "CD-1 mice [1]; 100 mg/kg oral", "result": 52.5, "unit": "%"}, {"measurement": "Pain Sensitivity 20-40 Minutes after Formalin Injection % ↓ vs. Vehicle", "setting": "CD-1 mice [1]; 150 mg/kg oral", "result": 60.3, "unit": "%"}, {"measurement": "Pain Sensitivity 20-40 Minutes after Formalin Injection % ↓ vs. Vehicle", "setting": "CD-1 mice [1]; 200 mg/kg oral", "result": 74.6, "unit": "%"}, {"measurement": "selectivity BKB1 vs BKB2 binding", "setting": "BKB1 receptor", "result": "selective BKB1 antagonist"}, {"measurement": "Ki", "setting": "BKB1 receptor; Cheng-Prusoff, read-out: BKB1 Ki (μg/ml) (converted)", "result": 5.9, "unit": "µM"}]}, {"compound": "CC(=O)N[C@H]1C(O)O[C@H](CO)[C@@H](O)[C@@H]1O", "note": "(stereo partly shown) [NAG, N-Acetyl Glucosamine]", "values": [{"measurement": "activity at 25 µg/mL", "setting": "[2]; Oryctolagus cuniculus, 24 h, 25 μg/ml, rhIL-1α 5 ng/ml (IL-1α alone = 100)", "result": 95.7, "unit": "%"}, {"measurement": "activity at 50 µg/mL", "setting": "[2]; Oryctolagus cuniculus, 24 h, 50 μg/ml, rhIL-1α 5 ng/ml (IL-1α alone = 100)", "result": 99.2, "unit": "%"}, {"measurement": "activity at 100 µg/mL", "setting": "[2]; Oryctolagus cuniculus, 24 h, 100 μg/ml, rhIL-1α 5 ng/ml (IL-1α alone = 100)", "result": 87.5, "unit": "%"}, {"measurement": "activity at 150 µg/mL", "setting": "[2]; Oryctolagus cuniculus, 24 h, 150 μg/ml, rhIL-1α 5 ng/ml (IL-1α alone = 100)", "result": 81.2, "unit": "%"}, {"measurement": "protective effect on rhIL-1α-mediated PG degradation / GAG release", "setting": "[2]; rhIL-1α 5 ng/ml", "result": "marginal"}, {"measurement": "Pain sensitivity, percent change of vehicle", "setting": "Lewis rats; 1 hr", "result": 8.8, "unit": "%"}, {"measurement": "Paw edema, percent change of vehicle", "setting": "Lewis rats; 1 hr", "result": 8.2, "unit": "%"}, {"measurement": "Pain sensitivity, percent change of vehicle", "setting": "Lewis rats; 3 hr", "result": 3.6, "unit": "%"}, {"measurement": "Paw edema, percent change of vehicle", "setting": "Lewis rats; 3 hr", "result": 15.8, "unit": "%"}, {"measurement": "Pain sensitivity, percent change of vehicle", "setting": "Lewis rats; 5 hr", "result": 2.6, "unit": "%"}, {"measurement": "Paw edema, percent change of vehicle", "setting": "Lewis rats; 5 hr", "result": 6.2, "unit": "%"}, {"measurement": "analgesic and anti-inflammatory activity", "setting": "Lewis rats; oral, rosmarinic acid 200 mg/kg, eriocitrin 100 mg/kg, NAG 166 mg/kg", "result": "minimal to no activity in inhibiting pain or inflammation"}, {"measurement": "number of abdominal constrictions / behavioral responses in 30 minutes, Mean ± SD", "setting": "CD-1 mice [3]; 300 mg/kg oral", "result": "91.0 ± 18.7"}, {"measurement": "Visceral pain sensitivity, behavioral responses, Mean ± SD", "setting": "CD-1 mice [3]; 300 mg/kg oral 30 min before acetic acid i.p., observed 30 minutes, CD-1 mice", "result": "91.0 ± 18.7"}, {"measurement": "Visceral pain sensitivity, % inhibition vs vehicle", "setting": "CD-1 mice [3]; 300 mg/kg oral, vs vehicle, CD-1 mice", "result": 5.4, "unit": "%"}]}]}
